Reference: article PMC10296720, “A Truncated 14-Amino-Acid Myelin Protein-Zero-Targeting Peptide for Fluorescence-Guided Nerve-Preserving Surgery” (Biomolecules, 2023)
Values after ≈ are worked out from the molar mass of the structure shown. Where a SMILES comes first, the peptide text is derived from it. The star is where a group is joined. X2 = CC1(C)C(=CC=CC=CC2=[N+](CCCCS(=O)(=O)[O-])c3ccc(S(=O)(=O)O)cc3C2(C)C)N(CCCCCC(=O)NCCN2C(=O)CC(*)C2=O)c2ccc(S(=O)(=O)O)cc21

What was measured:
[1] = Solubility; format: physicochemical; settings: as previously described (refs 27, 31, 36)
Description: (§1) Determination of the chemical and photophysical properties (LogP, solubility, serum binding, net charge, and brightness) was performed as previously described.

[2] = Brightness (in HSA); format: physicochemical, human; settings: in human serum albumin
Description: as §1

[3] = system: P0-expressing RT4 D6P2T myelinating Schwannoma cells; assay: P0 staining and co-localization via fluorescence confocal microscopy; format: cell-based; settings: 1 μM tracer, 1 h at 4 °C
Description: All chemicals were received from Actu-All Chemical (Oss, The Netherlands), Sigma Aldrich (St. Louis, MO, USA), Tokyo Chemical Industry (Tokyo, Japan), Biosolve BV (Valkenswaard, The Netherlands), and VWR Chemicals (Solon, OH, USA) and used without further purification. DMF and DMSO were dried over 4 Å molecular sieves for at least 24 h prior to use. Preparative high-pressure liquid chromatography (prep-HPLC) was performed on a Waters HPLC system (Waters Chromatography B.V., Etten-Leur, The Netherlands) using a 2545 quaternary gradient module pump and a 2489 UV detector. […] Absorption spectrometry was performed using a UV1280 UV–vis spectrometer (Shimadzu, Kyoto, Japan), and fluorescence spectrometry was performed using an LS55 (Perkin Elmer, Waltham, MA, USA). Fluorescence confocal imaging was performed using an SP8 WLL confocal microscope (Leica Microsystems, Wetzlar, Germany). The obtained images were analyzed using Leica Confocal Software (Leica Microsystems). The mean fluorescence intensity values per sample were measured using an LSRII flow cytometer (BD Biosciences, Franklin Lakes, NJ, USA) with APC-A settings (635 nm laser and 750 nm long-pass filter) for a Cy5 dye. […]
Semi-quenatitative assessment of the level of co-staining within the fluorescence […]

[4] = LogP; format: physicochemical; settings: as previously described (refs 27, 31, 36)
Description: as §1

[5] = Serum binding; format: in vitro ADME; settings: as previously described (refs 27, 31, 36)
Description: as §1

[6] = target: myelin protein zero (Homo sapiens) (UniProt P25189); settings: cited from earlier work
myelin protein zero (Homo sapiens), sequence (P25189 30-153): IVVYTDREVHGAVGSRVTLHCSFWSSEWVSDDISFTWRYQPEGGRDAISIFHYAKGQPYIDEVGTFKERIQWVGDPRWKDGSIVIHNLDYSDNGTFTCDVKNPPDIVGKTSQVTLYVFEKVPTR

Molecule	Solubility [1] [µM]	Brightness (in HSA) [2]	P0-related staining (pattern and intensity) ([3]; confocal microscopy, in words)	LogP [4]	fraction unbound [5]	Co-localization factor (scale: 0-1), Cy5 vs Lysosomes ([3]; N = 3 per tracer, semi-quantitative, Image J)	Kd [6] [nM]
KNPPDIVGKTSQVTLYVFEKVPTRY [Cy5-P0_101–125]	172	67,760	in agreement with the location of P0 on the membrane	–	–	–	–
CC[C@H](C)[C@H](NC(=O)[C@H](CC(=O)O)NC(C)=O)C(=O)N[C@H](C(=O)NCC(=O)N[C@@H](CCCCN)C(=O)N[C@H](C(=O)N[C@@H](CO)C(=O)N[C@@H](CCC(N)=O)C(=O)N[C@H](C(=O)N[C@H](C(=O)N[C@@H](CC(C)C)C(=O)N[C@@H](Cc1ccc(O)cc1)C(=O)N[C@H](C(=O)N[C@@H](Cc1ccccc1)C(=O)N[C@@H](CCC(=O)O)C(=O)N[C@@H](CCCCN)C(=O)N[C@H](C(=O)N1CCC[C@H]1C(=O)N[C@H](C(=O)N[C@@H](CCCNC(=N)N)C(=O)N[C@@H](Cc1ccc(O)cc1)C(=O)N[C@@H](CSC1CC(=O)N(CCNC(=O)CCCCCN2C(=CC=CC=CC3=[N+](CCCCS(=O)(=O)[O-])c4ccc(S(=O)(=O)O)cc4C3(C)C)C(C)(C)c3cc(S(=O)(=O)O)ccc32)C1=O)C(N)=O)[C@@H](C)O)C(C)C)C(C)C)[C@@H](C)O)C(C)C)[C@@H](C)O)C(C)C (stereo partly drawn) [Cy5-P0_105–125] (Ac-DIVGKTSQVTLYVFEKVPTRYC(X2)-NH2; N-terminus and C-terminus assumed)	9 (≈ 31.3 µg/mL)	157,300	–	−0.60 ± 0.04	0.44	low	–
Cy5-P0101-125 101-125 (from UniProt P25189)	–	–	–	–	–	–	104
